Experimental data published in the SangsterLogP compilation.

In the case of `COc1cc(Cc2cnc(N)nc2N)c(Br)c(OC)c1OC`, the logP is reported as 1.66.
Work on `CCOc1cc(Cc2cnc(N)nc2N)ccc1OC` yielded a logP of 1.2.
`COc1ccc(Cc2cnc(N)nc2N)cc1C(C)C` showed a logP of 2.79.
With `CCN(CC)c1cc(Cc2cnc(N)nc2N)ccc1OC` the logP was 2.43.
In the case of `COc1ccc(Cc2cnc(N)nc2N)cc1Oc1ccccc1`, the logP is reported as 2.12.
With `COc1cc(Cc2cnc(N)nc2N)ccc1Nc1ccccc1` the logP was 3.42.
With `COc1ccc(Cc2cnc(N)nc2N)cc1Nc1ccccc1` the logP was 2.88.
`COc1ccc(Br)cc1Cc1cnc(N)nc1N` gave a logP of 2.44.
In the case of `CCCOc1cc(Br)c(Cc2cnc(N)nc2N)cc1OC`, the logP is reported as 2.84.
In the case of `CCOc1cc(Cc2cnc(N)nc2N)c(Br)cc1OC`, the logP is reported as 1.86.
`CCCOc1ccc(Cc2cnc(N)nc2N)cc1OC` showed a logP of 2.02.
`COc1ccc(Cc2cnc(N)nc2N)cc1N(C)C` showed a logP of 1.68.
Compound `COc1cc(Cc2cnc(N)nc2N)ccc1N(C)C` has a logP of 1.87.
`CCOc1cc(Cc2cnc(N)nc2N)cc(OCC)c1OCC` gave a logP of 2.08.
`CN(C)c1ccc(Cc2cnc(N)nc2N)cc1` gave a logP of 1.82.
Compound `CCOc1cc(Cc2cnc(N)nc2N)c(I)c(OCC)c1OCC` has a logP of 2.9.
Work on `COc1ccccc1Cc1cnc(N)nc1N` yielded a logP of 1.75.
In the case of `COc1ccc(Cc2cnc(N)nc2N)cc1N`, the logP is reported as 0.76.
`COc1ccc(Cc2cnc(N)nc2N)cc1Br` showed a logP of 1.88.
`COc1ccc(Cc2cnc(N)nc2N)cc1F` gave a logP of 1.08.
`COc1cc(Cc2cnc(N)nc2N)ccc1Cl` showed a logP of 1.87.
Work on `CCOc1cc(Cc2cnc(N)nc2N)c(Br)c(OCC)c1OCC` yielded a logP of 1.81.
In the case of `COc1cc(Cc2cnc(N)nc2N)ccc1Oc1ccccc1`, the logP is reported as 2.49.
For `CCOc1ccc(Cc2cnc(N)nc2N)cc1OCC`, the logP was 1.72.
In the case of `COc1cc(Br)c(Cc2cnc(N)nc2N)cc1OC`, the logP is reported as 1.64.
With `CCCOc1cc(Cc2cnc(N)nc2N)c(Br)cc1OC` the logP was 2.31.
`COc1c(Br)c(Cc2cnc(N)nc2N)c(Br)c(OC)c1OC` showed a logP of 1.73.
Compound `CCCOc1cc(Cc2cnc(N)nc2N)ccc1OC` has a logP of 1.88.
With `COc1ccc(Cc2cnc(N)nc2N)cc1C` the logP was 1.91.
In the case of `COc1ccc(I)cc1Cc1cnc(N)nc1N`, the logP is reported as 2.7.
`CCOc1ccc(Cc2cnc(N)nc2N)cc1OC` gave a logP of 1.34.
With `COc1cc(Cc2cnc(N)nc2N)ccc1OC1CCCC1` the logP was 2.65.
For `COc1cc(Cc2cnc(N)nc2N)ccc1C(C)C`, the logP was 3.14.
With `COc1ccc(Cc2cnc(N)nc2N)cc1` the logP was 1.34.
`CCOc1cc(Br)c(Cc2cnc(N)nc2N)cc1OC` gave a logP of 2.18.
`Nc1ncc(Cc2ccccc2)c(N)n1` gave a logP of 1.54.
For `COc1cc(Cc2cnc(N)nc2N)c(Br)cc1Br`, the logP was 3.17.
Compound `COc1ccc(Br)c(Cc2cnc(N)nc2N)c1` has a logP of 2.
Work on `COc1cc(Cc2cnc(N)nc2N)ccc1N` yielded a logP of 0.49.
With `COc1ccc(Cc2cnc(N)nc2N)cc1I` the logP was 2.09.
